Source: patent publication US7595398B2, “N-(5-membered aromatic ring)-amido anti-viral compounds” (SmithKline Beecham Corporation, priority 2005, dated 2009)
Counter-ions that a name gives are not always drawn.

system: HCV replicon I389luc-ubi-neo/NS3-3′/ET in ET (Huh-lucubineo-ET) cells; screening for HCV RNA dependent RNA polymerase; test: Replicon Assay (luciferase, ET cell line Huh-lucubineo-ET); format: cell-based; details: Hepatitis C virus; inhibition of replication relative to no compound control; test concentration of 10 μM according to the fitted equation; luciferase 48-72 hours
Protocol: A cell line, ET (Huh-lucubineo-ET) was used for screening of compounds of the present invention for HCV RNA dependent RNA polymerase. The ET cell line was stably transfected with RNA transcripts harboring a I389luc-ubi-neo/NS3-3′/ET; replicon with firefly luciferase-ubiquitin-neomycin phosphotransferase fusion protein and EMCV-IRES driven NS3-5B polyprotein containing the cell culture adaptive mutations (E1202G; T12801; K1846T) (Krieger at al, 2001 and unpublished). The ET cells were grown in DMEM, supplemented with 10% fetal calf serum, 2 mM Glutamine, Penicillin (100 IU/mL)/Streptomycin (100 μg/mL), 1× nonessential amino acids, and 250 μg/mL G418 (“Geneticin”). They were all available through Life Technologies (Bethesda, Md.). The cells were plated at 0.5-1.0×10^4 cells/well in the 96 well plates and incubated for 24 hrs before adding nucleoside analogs. […] Luciferase activity were measured 48-72 hours later by adding a lysis buffer and the substrate (Catalog number Glo-lysis buffer E2661 and Bright-Glo luciferase system E2620 Promega, Madison, Wis.). Cells should not be too confluent during the assay. Percent inhibition of replication was plotted relative to no compound control. Under the same condition, cytotoxicity of the compounds was determined using cell proliferation reagent, WST-1(Roche, Germany). The compounds showing antiviral activities, but no significant cytotoxicities were chosen to determine IC50 and TC50. For these determinations, 10 concentrations of each compound were used. Concentrations for test compounds typically span a range of 500 fold. IC50 and TC50 values were calculated by fitting % inhibition at each concentration (I) to the following equation: % inhibition=100%/[1+10^(log IC50−log (I))*b] where b is Hill's coefficient.

Row | Compound | inhibition at 10 µM [%]
1 | NCc1ccc(-c2csc(NC(=O)[C@@H]3CCCN3C(=O)OCc3ccccc3)n2)cc1 [Compound 5379, 2-[4-(4-Aminomethyl-phenyl)-thiazol-2-ylcarbamoyl]-pyrrolidine-1-carboxylic acid benzyl ester] | 25
2 | Cc1ccc(-c2csc(NC(=O)[C@@H]3CCCN3C(=O)OCc3ccccc3)n2)c(C)c1 [Compound 5021, 2-[4-(2,4-Dimethyl-phenyl)-thiazol-2-ylcarbamoyl]-pyrrolidine-1-carboxylic acid benzyl ester] | 97
3 | O=C(O)c1ccc(-c2cnc(NC(=O)[C@@H]3CCCN3C(=O)OCc3ccccc3)s2)cc1 [Compound 5353, 2-[5-(4-Carboxy-phenyl)-thiazol-2-ylcarbamoyl]-pyrrolidine-1-carboxylic acid benzyl ester] | 50.2
4 | O=C(NCCN1CCOCC1)c1ccc(-c2csc(NC(=O)C3CCCN3C(=O)OCc3ccccc3)n2)cc1 (centres unmarked) [Compound 5339, 2-{4-[4-(2-Morpholin-4-yl-ethylcarbamoyl)-phenyl]-thiazol-2-ylcarbamoyl}-pyrrolidine-1-carboxylic acid benzyl ester] | 100
5 | O=C(CCCCC1SCC2NC(=O)NC21)Nc1ccc(-c2csc(NC(=O)[C@@H]3CCCN3C(=O)OCc3ccccc3)n2)cc1 (some centres unmarked) [Compound 5093, 2-(4-{4-[5-(2-Oxo-hexahydro-thieno[3,4-d]imidazol-4-yl)-pentanoylamino]-phenyl}-thiazol-2-ylcarbamoyl)-pyrrolidine-1-carboxylic acid benzyl ester] | 100
6 | O=C(Nc1nc(-c2cccc(NCC3CCCC3)c2)cs1)[C@@H]1CCCN1C(=O)OCc1ccccc1 [Compound 5319, 2-{4-[3-(Cyclopentylmethyl-amino)-phenyl]-thiazol-2-ylcarbamoyl}-pyrrolidine-1-carboxylic acid benzyl ester] | 67.4
7 | O=C(Nc1nc(-c2ccc(F)c(F)c2)cs1)[C@@H]1CCCN1C(=O)OCc1ccccc1 [Compound 5056, 2-[4-(3,4-Difluoro-phenyl)-thiazol-2-ylcarbamoyl]-pyrrolidine-1-carboxylic acid benzyl ester] | 99.3
8 | O=C(NC1CC1)c1ccc(-c2csc(NC(=O)[C@H]3CCCN3C(=O)OCc3ccccc3)n2)cc1 [Compound 5349, 2-[4-(4-Cyclopropylcarbamoyl-phenyl)-thiazol-2-ylcarbamoyl]-pyrrolidine-1-carboxylic acid benzyl ester] | 28.6
9 | O=C(Nc1cccc(-c2cnc(NC(=O)[C@@H]3CCCN3C(=O)OCc3ccccc3)s2)c1)C1CCCC1 [Compound 5116, 2-{5-[3-(Cyclopentanecarbonyl-amino)-phenyl]-thiazol-2-ylcarbamoyl}-pyrrolidine-1-carboxylic acid benzyl ester] | 100
10 | O=C(Nc1ncc(Cc2cccc([N+](=O)[O-])c2)s1)[C@@H]1CCCN1C(=O)OCc1ccccc1 [Compound 5047, 2-[5-(3-Nitrobenzyl)-thiazol-2-ylcarbamoyl]-pyrrolidine-1-carboxylic acid benzyl ester] | 37.7
11 | O=C(Nc1nc(-c2ccc3ccccc3c2)cs1)[C@@H]1CCCN1C(=O)OCc1ccccc1 [Compound 5060, 2-(4-Naphthalen-2-yl-thiazol-2-ylcarbamoyl)-pyrrolidine-1-carboxylic acid benzyl ester] | 98.4
12 | CN(C(=O)c1ccc(-c2csc(NC(=O)[C@@H]3CCCN3C(=O)OCc3ccccc3)n2)cc1)c1ccccc1 [Compound 5328, 2-{4-[4-(Methyl-phenyl-carbamoyl)-phenyl]-thiazol-2-ylcarbamoyl}-pyrrolidine-1-carboxylic acid benzyl ester] | 97.3
13 | O=C(NC1CC1)c1ccc(-c2csc(NC(=O)[C@@H]3CCCN3C(=O)OCc3ccccc3)n2)nc1 [Compound 5355, 2-[4-(5-Cyclopropylcarbamoyl-pyridin-2-yl)-thiazol-2-ylcarbamoyl]-pyrrolidine-1-carboxylic acid benzyl ester] | 99.9
14 | O=C(Nc1nc(-c2cccc(NCC3CC3)c2)cs1)[C@@H]1CCCN1C(=O)OCc1ccccc1 [Compound 5335, 2-{4-[3-(Cyclopropylmethyl-amino)-phenyl]-thiazol-2-ylcarbamoyl}-pyrrolidine-1-carboxylic acid benzyl ester] | 92.5
15 | O=C(Nc1cccc(-c2csc(NC(=O)C3CCCN3C(=O)OCc3ccccc3)n2)c1)c1ccccc1 (centres unmarked) [Compound 5019, 2-[4-(3-Benzoylamino-phenyl)-thiazol-2-ylcarbamoyl]-pyrrolidine-1-carboxylic acid benzyl ester] | 100
16 | O=C(NC1CC1)c1ccc(-c2csc(NC(=O)[C@@H]3CCCN3CCc3ccccc3)n2)cc1 [Compound 5316, 1-Phenethyl-pyrrolidine-2-carboxylic acid [4-(4-cyclopropylcarbamoyl-phenyl)-thiazol-2-yl]-amide] | 3.19
17 | Cc1ccc(Cc2cnc(NC(=O)[C@@H]3CCCN3C(=O)OCc3ccccc3)s2)cc1 [Compound 5040, 2-[5-(4-Methyl-benzyl)-thiazol-2-ylcarbamoyl]-pyrrolidine-1-carboxylic acid benzyl ester] | 22.5
18 | O=C(NC1CCNCC1)c1ccc(-c2csc(NC(=O)C3CCCN3C(=O)OCc3ccccc3)n2)cc1 (centres unmarked) [Compound 5356, 2-{4-[4-(Piperidin-4-ylcarbamoyl)-phenyl]-thiazol-2-ylcarbamoyl}-pyrrolidine-1-carboxylic acid benzyl ester] | 100
19 | CCCCC(=O)Nc1ccc(-c2csc(NC(=O)[C@@H]3CCCN3C(=O)OCc3ccccc3)n2)cc1 [Compound 5089, 2-[4-(4-Pentanoylamino-phenyl)-thiazol-2-ylcarbamoyl]-pyrrolidine-1-carboxylic acid benzyl ester] | 100
20 | O=C(Nc1nc(CSc2nc(-c3ccc(F)cc3)cs2)cs1)[C@@H]1CCCN1C(=O)OCc1ccccc1 [Compound 5061, 2-{4-[4-(4-Fluoro-phenyl)-thiazol-2-ylsulfanylmethyl]-thiazol-2-ylcarbamoyl}-pyrrolidine-1-carboxylic acid benzyl ester] | 88.4
21 | O=C(Nc1cccc(-c2csc(NC(=O)[C@@H]3CCCN3C(=O)OCc3ccccc3)n2)c1)c1ccc(Cl)cc1 [Compound 5038, 2-{4-[3-(4-Chloro-benzoylamino)-phenyl]-thiazol-2-ylcarbamoyl}-pyrrolidine-1-carboxylic acid benzyl ester] | 100
22 | O=C1CC(c2csc(NC(=O)[C@@H]3CCCN3C(=O)OCc3ccccc3)n2)C2(CCCCC2)O1 (some centres unmarked) [Compound 5044, 2-[4-(2-Oxo-1-oxa-spiro[4.5]dec-4-yl)-thiazol-2-ylcarbamoyl]-pyrrolidine-1-carboxylic acid benzyl ester] | 16.9
23 | O=C(Nc1nc(-c2cc3ccccc3oc2=O)cs1)[C@@H]1CCCN1C(=O)OCc1ccccc1 [Compound 5007, 2-[4-(2-Oxo-2H-chromen-3-yl)-thiazol-2-ylcarbamoyl]-pyrrolidine-1-carboxylic acid benzyl ester] | 100
24 | Cc1ccc(S(=O)(=O)Cc2csc(NC(=O)[C@@H]3CCCN3C(=O)OCc3ccccc3)n2)cc1 [Compound 5033, 2-[4-(Toluene-4-sulfonylmethyl)-thiazol-2-ylcarbamoyl]-pyrrolidine-1-carboxylic acid benzyl ester] | 2.51
25 | CN(C(=O)c1ccc(-c2csc(NC(=O)[C@@H]3CCCN3C(=O)OCc3ccccc3)n2)cc1)C1CCCCC1 [Compound 5332, 2-{4-[4-(Cyclohexyl-methyl-carbamoyl)-phenyl]-thiazol-2-ylcarbamoyl}-pyrrolidine-1-carboxylic acid benzyl ester] | 99.7
26 | O=C(Nc1nc(-c2cccc([N+](=O)[O-])c2)cs1)[C@@H]1CCCN1C(=O)OCc1ccccc1 [Compound 5008, 2-[4-(3-Nitro-phenyl)-thiazol-2-ylcarbamoyl]-pyrrolidine-1-carboxylic acid benzyl ester; hydrobromide] | 63
27 | O=C(Nc1ccc(-c2csc(NC(=O)[C@@H]3C[C@@H](O)CN3C(=O)OCc3ccccc3)n2)cc1)C1CC1 [Compound 5310, 2-{4-[4-(Cyclopropanecarbonyl-amino)-phenyl]-thiazol-2-ylcarbamoyl}-4-hydroxy-pyrrolidine-1-carboxylic acid benzyl ester] | 99.3
28 | O=C(NC1CC1)c1ccc(-c2csc(NC(=O)[C@@H]3CCN3C(=O)OCc3ccccc3)n2)cc1 [Compound 5301, 2-[4-(4-Cyclopropylcarbamoyl-phenyl)-thiazol-2-ylcarbamoyl]-azetidine-1-carboxylic acid benzyl ester] | 100
29 | CC(C)Cc1ccc(-c2csc(NC(=O)[C@@H]3CCCN3C(=O)OCc3ccccc3)n2)cc1 [Compound 5102, 2-[4-(4-Isobutyl-phenyl)-thiazol-2-ylcarbamoyl]-pyrrolidine-1-carboxylic acid benzyl ester] | 9.8
